From ChEMBL document CHEMBL2417420, “Autotaxin inhibition: development and application of computational tools to identify site-selective lead compounds” (Bioorg Med Chem, 2013)
Active and inactive are the calls of the source. The calls are words filed in the database; no cut-off is given here.

Each compound was assayed against T1, Autotaxin (Homo sapiens, UniProt Q13822) (assay: Inhibition of C-terminal FLAG-tagged human recombinant autotaxin using synthetic substrate FS-3 at 10 uM measured every 2 mins by FRET assay relative to control).

inhibition [%] | Structure (SMILES)
0 | Cc1cc2cc(C#N)c(SCC(=O)Nc3ccc(N(C)C)cc3)nc2cc1C
10 | CCOC(=O)c1sc(NC(=O)c2ccc(Oc3ccc(C(=O)Nc4sc(C(=O)OCC)c(C)c4C(=O)OCC)cc3)cc2)c(C(=O)OCC)c1C
20 | COC(=O)c1ccc(/C=C2/Sc3ccccc3N(Cc3ccccc3F)C2=O)cc1
10 | COc1ccc(CNC(=O)C(C)(C)NC(=O)c2cc(-c3ccoc3)nc3ccccc23)c(OC)c1
20 | COc1ccc(CCn2c(-c3cc(OC)c(OC)c(OC)c3)nc3cc(C(=O)NCCOCCO)ccc32)cc1OC
30 | COCCNS(=O)(=O)c1ccc2c(c1)NC(=O)C(Cc1ccccc1)N2C(=O)CNCc1ccc(OC)cc1 (stereo unspecified)
79.1 | CCCCCCOc1ccc(/C=N/c2ccc(-c3ccc(/N=C/c4ccc(OCCCCCC)c(OC)c4)cc3)cc2)cc1CC
20 | COc1cccc(-c2ccc(C(=O)N(CCN)Cc3ccc(NC(C)=O)cc3)cn2)c1
10 | COc1cc(/C=N/NC(=O)c2ccc(NC(=O)c3ccc(F)cc3)cc2)cc(Cl)c1O
10 | CCc1ccc2c(c1)c1nnc(SCC(=O)NCc3ccc4c(c3)OCO4)nc1n2C
10 | CC1CCC(C(C)C)C(OCc2nc3cc(C(=O)NCCOCCO)ccc3n2Cc2ccco2)C1 (stereo unspecified)
0 | Cc1ccc(C(=O)Nc2ccccc2C(=O)O)cc1S(=O)(=O)Nc1ccc(Br)cc1
10 | CC(CNC(=O)c1cc(-c2ccccc2)nc2ccccc12)C(=O)NCCNc1ccccc1 (stereo unspecified)
0 | Cc1ccc(NC(=O)CN2C(=O)N/C(=C/c3ccc(OCc4cccc([N+](=O)[O-])c4)cc3)C2=O)cc1
20 | COc1ccc(-c2cc(C(=O)NC(C)(C)C(=O)NCCCOC(C)C)c3ccccc3n2)cc1C
0 | CCc1nc2ccc(C(=O)NCCc3c[nH]c4ccccc34)cn2c1N(C)C(=O)C1CCCCC1
10 | COc1ccc(-c2nc3cc(C(=O)NCCOCCO)ccc3n2CCc2ccc(OC)c(OC)c2)c(OC)c1
30 | CCOc1cc(CC2SC(N3CCN(C4=NC(=O)C(Cc5ccc(O)c(OCC)c5)S4)CC3)=NC2=O)ccc1O (stereo unspecified)
20 | CCn1c(CN2CCc3ccccc3C2)nc2cc(C(=O)NCC(O)CO)ccc21 (stereo unspecified)
20 | COc1ccc(CNC(=O)c2cc(-c3ccc(OC)c(OC)c3)nc3ccc(CNC(=O)c4cccc(Cl)c4)cc23)c(OC)c1

inhibition [%] | Structure (SMILES)
20 | COc1ccc(C2CC(=O)NC(SCC(=O)Nc3ccc(I)cc3)=C2C#N)cc1OC (stereo unspecified)
30 | CCc1cc2c(cc3c(=O)n(CCCC(=O)NCc4ccc(Cl)cc4)ncn32)s1
30 | COc1cc(C2CC(=O)NC(SCC(=O)Nc3c(C)cc(C)cc3C)=C2C#N)ccc1OCc1ccccc1 (stereo unspecified)
10 | COc1cc(/C=N/NC(=O)c2cc(-c3ccc4ccccc4c3)n[nH]2)ccc1O
10 | O=C(NCCOCCO)c1ccc2c(c1)nc(CN1CCC(N3CCCC3)CC1)n2CC1CC1
20 | CC(c1cc2ccccc2o1)N1CCN(C(=O)CCSc2ccc3ccccc3c2)CC1 (stereo unspecified)
0 | O=C(O)c1cccc(/N=C2\S/C(=C\c3ccc(-c4cccc(Cl)c4)o3)C(=O)N2Cc2ccccc2)c1
10 | COc1ccc(-c2cc(C(F)(F)F)n3nc(C(=O)Nc4cc(Sc5ccc(Br)cc5)cc([N+](=O)[O-])c4)c(Cl)c3n2)cc1OC
10 | COc1cccc(Cc2nc3cc(C(=O)NCC(O)CO)ccc3n2CCc2ccccc2F)c1 (stereo unspecified)
30 | COc1cc(CCNC(=O)c2ccc3c(c2)nc(-c2cc(OC)cc(OC)c2)n3CCc2ccc(OC)c(OC)c2)cc(OC)c1
30 | COc1cccc(CCNC(=O)c2ccc3c(c2)nc(-c2cc(OC)c(OC)c(OC)c2)n3CCc2ccc(OC)c(OC)c2)c1
30 | COc1cccc(/C=C2/NC(=O)N(c3cccc(Cl)c3)C2=O)c1OCc1cccc(C(=O)O)c1
10 | COc1ccc(CCn2c(COc3ccccc3)nc3cc(C(=O)NCC(O)CO)ccc32)cc1OC (stereo unspecified)
30 | COc1cc(C2C(C#N)=C(SCC(=O)Nc3cccc4ccccc34)NC3=C2C(=O)CCC3)ccc1O (stereo unspecified)
30 | O=C(NCC(O)CO)c1ccc2c(c1)nc(CN1CCC(N3CCCC3)CC1)n2CCc1ccccc1 (stereo unspecified)
10 | COc1cc(/C=N/NC(=O)c2ccc(CN3C(=O)c4cccc5cccc3c45)cc2)cc(Br)c1O
10 | COc1ccc(/C=c2/sc3n(c2=O)NC2(c4ccccc4)N(C)C(=O)N(C)C2(c2ccccc2)N=3)cc1O (stereo unspecified)
10 | COc1ccc(-c2cc(C(=O)NCC(C)C(=O)NCCNc3ccccc3)c3ccccc3n2)cc1 (stereo unspecified)
10 | COc1ccc(/C=N/NC(=O)c2cc(O)c(O)c(O)c2)cc1Cn1nc(C)c(Br)c1C
10 | COc1ccc(-c2cc(C(=O)NC(C(=O)NCCCCCCO)C(C)C)c3ccccc3n2)cc1C (stereo unspecified)

Second part, the compound before the results:

Structure (SMILES) | inhibition [%]
CCCCCCOc1ccc(/C=N/c2ccc(/N=C/c3ccc(OCCCCCC)cc3)c(Cl)c2)cc1 | 0
COc1ccc(C2CC(=O)NC(SCC(=O)Nc3ccc(I)cc3)=C2C#N)cc1 (stereo unspecified) | 20
CCCCCCCCCCCCCCCCS(=O)(=O)c1ccc(S(=O)(=O)N/N=c2\sc3ccc(S(=O)(=O)O)cc3n2C)cc1C(=O)O | 20
O=C1/C(=C/c2cccc(Oc3ccccc3)c2)SC(=S)N1Cc1ccccc1 | 20
Cc1ccc(C)c(N2CCN(C3CN(C(=O)NCCc4ccccc4)CC3O)CC2)c1 (stereo unspecified) | 10
O=C(O)CN1C(=O)/C(=C\c2ccc(OCc3cccc4ccccc34)cc2)SC1=S | 30
COCCNS(=O)(=O)c1ccc2c(c1)NC(=O)C(CO)N2C(=O)CN1CCC(N2CCCCC2)CC1 (stereo unspecified) | 20
N#CC1=C(SCC(=O)Nc2ccc(Br)cc2)NC(=O)CC1c1cccc(O)c1 (stereo unspecified) | 30
O=C(N/N=C/c1cc(Br)c(O)c(O)c1Br)/C(=C\c1ccc([N+](=O)[O-])cc1)NC(=O)c1ccccc1 | 20
COc1ccc(CNC(=O)N2CC(O)C(N3CCN(c4ccccc4F)CC3)C2)cc1 (stereo unspecified) | 10
CC(=O)CCC(=O)N1CCN(c2ccc(C(=O)NC(C(N)=O)C(C)O)cn2)CC1C (stereo unspecified) | 10
Cc1[nH]c2ccccc2c1CC(=O)N1CCN(C(=O)c2ccccc2C(=O)c2ccc(Cl)cc2)CC1 | 30
CC(=O)N1CCN(C(=O)c2ccc3nc(C)c(N(C)C(=O)CCc4ccccc4)n3c2)CC1 | 0
COc1cc(/C=c2/sc3n(c2=O)NC2(c4ccccc4)N(C)C(=O)N(C)C2(c2ccccc2)N=3)ccc1O (stereo unspecified) | 20
O=C1Nc2ccc([N+](=O)[O-])cc2/C1=N/NC(=O)c1ccc(C(=O)N/N=C2\C(=O)Nc3ccc([N+](=O)[O-])cc32)cc1 | 10
CCOc1cc(/C=C2/NC(=O)N(Cc3cccc(F)c3)C2=O)cc(Cl)c1OCC | 10
CC(O)C(NC(=O)c1ccc(N2CCN(C(=O)CCC(=O)c3ccccc3)CC2)nc1)C(N)=O (stereo unspecified) | 20
O=C(O)[C@@H](Cc1ccc(O)cc1)/N=C1\S/C(=C\c2ccc(-c3cccc(Cl)c3)o2)C(=O)N1c1ccccc1 | 30
CC(C)c1ccc(OCC(=O)N2CCN(c3ncccc3C(=O)N3CCCC3C(N)=O)CC2C)cc1 (stereo unspecified) | 30
Nc1c(/N=N/c2ccc(-c3ccc(/N=N/c4ccc(O)cc4)cc3)cc2)c(S(=O)(=O)O)cc2cc(S(=O)(=O)O)c(/N=N/c3ccccc3)c(O)c12 | 0

Structure (SMILES) | inhibition [%]
O=C1/C(=C\c2ccc(OCc3cccc4ccccc34)cc2)SC(=S)N1c1cccc(F)c1 | 10
Cc1cc(C)cc(CC(=O)N2CCN(c3ccc(C(=O)NC(C(N)=O)C(C)O)cn3)CC2)c1 (stereo unspecified) | 20
O=C1/C(=C\c2cccc(OCc3ccccc3F)c2)SC(=S)N1Cc1ccccc1 | 10
O=C(NC(S)Nc1ccc2oc(-c3ccc(-c4ccccc4)cc3)nc2c1)c1ccc([N+](=O)[O-])cc1 (stereo unspecified) | 10
Cc1[nH]n(-c2cc(Cl)c(S(=O)(=O)O)cc2Cl)c(=O)c1/N=N/c1cc(Nc2nc(Cl)nc(Nc3cccc(S(=O)(=O)O)c3)n2)ccc1S(=O)(=O)O | 10
Cn1cc(S(=O)(=O)N2CCc3ccccc32)cc1C(=O)N1CCC(Cc2ccccc2)CC1 | 30
CS(=O)(=O)N1CCC(N(C(=O)COc2ccccc2)C2CCC2)CC1c1cccc(F)c1 (stereo unspecified) | 30
CCOC(=O)C(=O)NCC1CCC(c2cc3n(n2)CCN3S(=O)(=O)c2cccc(Cl)c2)CC1 (stereo unspecified) | 20
N#CC1=C(SCC(=O)Nc2ccc(Br)cc2)NC(=O)CC1c1ccc(O)cc1 (stereo unspecified) | 10
CCCCCOc1ccc(/N=C2\C=C(O)C(=O)c3ccccc32)cc1 | 20
COCCOCC(=O)N1CCN(c2ccc(C(=O)NC(C(N)=O)C(C)O)cn2)CC1C (stereo unspecified) | 20
CC(O)C(NC(=O)c1cccnc1N1CCN(C(=O)CCC(=O)c2ccccc2)CC1)C(N)=O (stereo unspecified) | 10
COc1cc(/C=C2/SC(=S)N(C3CCCCC3)C2=O)ccc1OCc1ccccc1Cl | 0
CC(CNC(=O)CCCn1ncn2c(cc3occc32)c1=O)c1ccccc1 (stereo unspecified) | 10
CC(C)(C)c1cc(/C=C/C(=O)Nc2ccc(CNC(=O)C(C#N)=C3CCCCC3)cc2)cc(C(C)(C)C)c1O | 20
CCCCS(=O)(=O)N1CCn2nc(C3CCC(CNS(=O)(=O)c4ccccc4C)CC3)cc21 (stereo unspecified) | 30
CCCOC(=O)c1ccc(/N=C/c2cccc(OC)c2O)cc1 | 10
CC1CCC(C(C)C)C(OCC(=O)N2CCCN(c3ncccc3C(=O)N3CCCC3C(N)=O)CC2)C1 (stereo unspecified) | 20
CC(O)C(NC(=O)c1ccc(N2CCN(C(=O)Cc3ccc(O)cc3)CC2)nc1)C(N)=O (stereo unspecified) | 10

What follows are compounds tested against T1, Autotaxin (assay: Activation of C-terminal FLAG-tagged human recombinant autotaxin using paranitrophenyl thymidine monophosphate as substrate at 10 uM measured every 2 mins by […] assay).

Activity | Structure (SMILES)
Active | CCOc1cc(/C=C2/SC(=S)N(Cc3ccccc3)C2=O)ccc1OC(=O)c1ccc(F)cc1
Active | COc1cc(/C=C2/SC(=S)N(Cc3ccccc3)C2=O)ccc1OC(=O)c1ccc(F)cc1
Active | O=C(Cn1c(=O)sc2cccc(Cl)c21)OCc1cccc(Oc2ccccc2)c1

Continued, compound first:

Structure (SMILES) | Activity
O=C(O)c1cc(-c2ccc(/C=C3\S/C(=N\c4ccccc4)N(Cc4ccccc4)C3=O)o2)ccc1Cl | Active
CC(O)C(NC(=O)c1ccc(N2CCN(C(=O)Cc3cccc4ccccc34)CC2)nc1)C(N)=O (stereo unspecified) | Active
CCCSC1=C(C#N)C(c2cc(Br)c(O)c(OC)c2)CC(=O)N1 (stereo unspecified) | Active
CC(=O)Nc1ccc(S(=O)(=O)N/N=C/c2ccc(OCc3ccccc3)cc2)cc1 | Active
